{"source": "patent US7772197B2", "about": "“1,3,5-triazines for treatment of viral diseases” (1,3,5-Triazines for Treatment of Viral Diseases, priority 2002, dated 2010)", "key": {"HIV-1 LAI-M184V": {"system": "HIV-1 LAI-M184V", "assay": "Sensitivity of NRTI-resistant HIV strain M184V, MT-2 cells", "format": "cell-based", "conditions": "Human immunodeficiency virus 1, MT2", "protocol": "(§1) 0.1 ml of a 3×10^5 cells/ml MT-2 cell suspension were seeded in 96-well plates at 3×10^4 cells/well. The compounds to be assayed were diluted in a separate 96-well at ten times (10×) the concentration needed for the screen. 22 μl of the 10× compounds was then added to the wells in triplicate except for six control wells, containing uninfected MT-2 cells alone (3 wells) and untreated HIV-infected MT-2 cells (3 wells). This was followed by the addition of HIV-1 at an MOI of 0.01, except for the three wells serving as the uninfected control. 0.1 ml of cRPMI was added to the uninfected well instead of virus. After the addition of virus, the 96-well plate was centrifuged at 1,200×g for two hours to enhance the adsorption of the virus by the MT-2 cells (see, e.g., O'Doherty, J. Virol. 74:10074-10080 (2000)). After the centrifugation step, the 96-well plate was then incubated in a 37° C. incubator containing 5% CO2 for three days. At the end of this time period the virus and cells were mixed by gentle pipetting followed by a 1 minute spin at 600×g to pellet the cells. The supernatant of each well was then serially diluted 1,000-fold into new 96-well plates to serve as inoculum for the next passage and assayed by ELISA for the amount of p24 produced. The next passage was performed as described above, except that the virus used to infect the cells was derived from the 1,000-fold dilution plate.\n(§2) To determine if there is resistance of HIV NRTI resistant strains to mutagenic nucleoside analogues, NRTI resistant strains were grown in the presence of 5-aza-dC to determine whether the EC50 for 5-aza-dC is different from the WT strain (HIV-1 LAI). […] Growth of HIV NRTI resistant strains in the presence of the appropriate concentration of NRTI was used as a positive control.\n(§3) Three HIV NRTI resistant strains (HIV-1 LAI-M184V, HIV-1 RTMDR1, with 74V, 41L, 106A and 215Y mutations, and HIV-1 RTMC, with 67N, 70R, 215F and 219Q mutations) were used to test the effectiveness of 5-aza-dC. […] Mutations include: M41L, E44D, A62V, K65R, D67N, T69DN, T69S_SS, K70R, L74V, V75I, F77L, Y115F, F116Y, V118I, Q151M, M184V, L210W, T215F and K219QE.\n(§4) The effectiveness of DHAdC was tested against wild-type HIV strains and NRTI resistant HIV strains as described in Example 2. The following strains were tested: HIV-1 LAI, wild-type; HIV-I LAI-M184V-M184V mutation with resistance to lamivudine (3TC); HIV-1 RTMDR1-74V, 41L, 106A and 215Y mutations with resistance to zidovudine, didanosine, nevirapine and other non-nucleoside reverse transcriptase inhibitors; and HIV-1 RTMC-67N, 70R, 215F and 219Q with resistance to zidovudine."}, "HIV": {"system": "HIV", "assay": "In vitro passaging assay of DHAdC", "format": "cell-based", "conditions": "100 nM, quadruplicate", "protocol": "as §1, with “22 μl of the 10× compounds was then added to the wells in triplicate except for six control wells, containing uninfected MT-2 cells alone (3 wells) and untreated HIV-infected MT-2 cells (3 wells).” left out, “plate. […]” for “plate.”"}, "[1]": {"assay": "Pharmacokinetics of DHAdC base and DHAdC-palmitate in rats", "format": "in vivo", "conditions": "rat, plasma, IV"}, "[2]": {"system": "HIV-1 RTMC, with 67N, 70R, 215F and 219Q mutations", "assay": "Sensitivity of NRTI-resistant HIV strain RTMC, MT-2 cells", "format": "cell-based", "conditions": "Human immunodeficiency virus 1, MT2", "protocol": "as §1, §2, §3, §4"}}, "data": [{"molecule": "NC1=NC(=O)N([C@H]2C[C@H](O)[C@@H](CO)O2)CN1", "note": "[DHAdC, 1-(2-Deoxy-β-D-ribofuranosyl)-4-amino-1,2,5,6-tetrahydro-1,3,5-triazin-2-one]", "values": [{"measurement": "EC50", "setting": "HIV-1 LAI-M184V", "value": 6, "unit": "µM"}, {"measurement": "passage after which no infectious virus was recovered", "setting": "HIV", "value": 12, "unit": "passage"}, {"measurement": "passage by which p24 fell permanently below the limit of detection (4 ng/ml)", "setting": "HIV", "value": "≤ 8", "unit": "passage"}, {"measurement": "AUC(0-inf)", "setting": "[1]", "value": 75000, "unit": "ng·h/mL"}, {"measurement": "EC50", "setting": "[2]", "value": 6, "unit": "µM"}]}]}
